In patent publication US9868715B2 (THE BOARD OF REGENTS OF THE UNIVERSITY OF TEXAS SYSTEMS, priority 2014, dated 2018):

Assays:
[1] = tested on: transformed PSC (human pancreatic stellate cells); assay: PSC proliferation, AlamarBlue Cell Viability Assay; format: cell-based; settings: for inhibition at 5 µM / inhibition at 10 µM / inhibition at 20 µM: Homo sapiens, mean of at least three independent experiments, NE = No effect, read-out: Inhibitory Effect (%) on PSC proliferation; for IC50: human PSC, 24 h, mean±SEM of at least three experiments, read-out: IC50, inhibition of PSC proliferation; for IC50 / Antiproliferative effect on PSC, result in words: AlamarBlue; for Antiproliferative effect on PSC, result in words: transformed PSC
Experimental: The calculated lipophilicity (cLogP) and topological polar surface area (tPSA) values of synthesized analogues are listed in Table 1. […] AlamarBlue is a non-toxic reagent that is converted to a highly fluorescent end product by viable cells.
Under an IRB-approved tissue protocol, discarded human resected pancreatic tissue (500 mm^3) was attained fresh from the operating room at the University of Texas Medical Branch. The tissue was minced and plated on a collagen-coated flask (15 μg/mL, Invitrogen) with DMEM (VWR; Radnor, Pa.) supplemented with penicillin 200 U/mL, streptomycin 200 μg/mL, amphotericin B 0.25 μg/mL and gentimicin 50 μg/mL (Invitrogen, Carlsbad Calif.), 10% fetal bovine serum (Lonza, Walkersville, Md.), 1% insulin-transferrin, selenium-ethanolamine (Gibco, Grand Island, N.Y.), and 1% non-essential amino acids (Sigma-Aldrich, St. Louis, Mo.). The human PSC were isolated by the outgrowth method.^41-43 The purity of PSC culture was confirmed by immunohistochemical staining for vimentin, α-smooth muscle actin, glial fibrillar acidic protein, or Oil red O staining. Primary PSC were transformed and immortalized for use in experiments using lentiviral vectors containing SV40 Large T antigen and human telomerase (plasmid #12245 and 12246; Addgene, Cambridge, Mass.). Cultures were maintained in DMEM with 10% FBS, at 37° C. in a humidified 95% O2/5% CO2 atmosphere.
Cell proliferation assay. Transformed PSC (3×10^3) were plated in 96-well plates, in sextuplicate. […] AlamarBlue reagent (10% sample volume, DAL1025) was added to each well per Invitrogen's protocol. Fluorescence was recorded using excitation/emission wavelengths of 544/590 nm and the SpectraMax M2 Microplate Reader (Molecular Devices, Sunnyvale Calif.).
Statistical analysis. Dose-response curves were generated by plotting fluorescence or absorbance versus log (compound concentration). A best-fit curve was created using nonlinear regression, and the IC50 or EC50 determined from the graph (GraphPad Prism 5; GraphPad Software Inc., La Jolla, Calif.). To analyze continuos variables, unpaired student t-tests and one-way ANOVA with Tukey-Kramer multiple comparisons post-test (GraphPad Prism 5). Significance was set at p<0.05.

[2] = target: T1, human CBS (cystathionine-β-synthase) (Homo sapiens, UniProt P35520); assay: H2S production by recombinant CBS; format: biochemical; settings: 100 μM compound; H2S production as % of control (100%)
T1 construct: GST (N); made in house; host or cells: E. coli BL21(DE3) Codon Plus
T1 sequence (P35520 1-551): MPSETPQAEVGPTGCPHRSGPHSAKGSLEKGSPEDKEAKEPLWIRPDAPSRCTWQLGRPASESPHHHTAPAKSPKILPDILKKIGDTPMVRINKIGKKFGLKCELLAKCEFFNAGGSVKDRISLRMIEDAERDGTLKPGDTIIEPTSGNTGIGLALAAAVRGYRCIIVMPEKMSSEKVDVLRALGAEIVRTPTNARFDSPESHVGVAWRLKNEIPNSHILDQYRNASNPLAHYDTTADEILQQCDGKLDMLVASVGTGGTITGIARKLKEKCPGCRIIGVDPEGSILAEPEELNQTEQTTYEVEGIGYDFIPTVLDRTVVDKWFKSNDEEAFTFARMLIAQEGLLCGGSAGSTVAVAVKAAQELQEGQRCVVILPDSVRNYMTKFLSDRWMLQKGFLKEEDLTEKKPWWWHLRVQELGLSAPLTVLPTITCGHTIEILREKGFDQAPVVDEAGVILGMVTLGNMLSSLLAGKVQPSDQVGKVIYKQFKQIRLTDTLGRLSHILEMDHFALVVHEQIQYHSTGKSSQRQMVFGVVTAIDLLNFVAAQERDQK
Experimental: Recombinant human CBS protein expression and purification. The expression and purification of human CBS was performed as described previously (Asimakopoulou et al. 2013, Br J Pharmacol. 169(4):922-32). Briefly, E. Coli BL21(DE3) Codon Plus cells (Stratagene, La Jolla, Calif., USA) containing the expression vector pGEX-Kg/GST-CBS were grown at 37° C. and 180 rpm in LuriaBertani (LB) broth medium containing 100 μg/ml ampicillin to an absorption of 0.6-0.8 at 600 nm. Protein expression was induced by addition of 0.1 mM IPTG (isopropyl-b-D-thiogalactopyranoside) and cells were further incubated at 30° C. overnight. The bacteria were harvested and sonicated in lysis buffer PBS (140 mM NaCl, 2.7 mM KCl, 10 mM Na2HPO4, 1.8 mM KH2PO4, pH 7.8) containing a protease inhibitors cocktail (Sigma). The protein lysate was loaded onto a GSTrap FF 1 ml affinity column (Amersham Biosciences) and the GST-CBS recombinant protein was eluted with the elution buffer (50 mM Tris-HCl, 10 mM reduced glutathione, pH 8.0) and then dialyzed and concentrated in 10 mM sodium phosphate buffer (pH 8.2) and DTT (1 mM).
Measurement of H2S production by recombinant CBS. The measurement of H2S production by recombinant CBS enzyme was performed as described (Asimakopoulou et al. 2013, Br J Pharmacol. 169(4):922-32). Briefly, each test consisted of a 100 μl reaction mixture in 50 mM sodium phosphate buffer pH 8.2 containing 1 μg of the purified human CBS enzyme, 0.01 mM pyridoxal-5′-phosphate (PLP), 10 mM L-cysteine and 0.5 mM homocysteine. […] The reaction was initiated by transferring the Eppendorf tubes from ice to a 37° C. shaking water bath. After 60 minutes of incubation at 37° C., the reaction was terminated by adding 1% ZnAc followed by 10% trichloroacetic acid. Subsequently, N,N-dimethylphenylendiamine sulfate (20 mM in 7.2 M HCl) and FeCl3 (30 mM in 1.2 M HCl) were added and the optical absorbance of the solutions was measured at 650 nm.

Row | SMILES | inhibition at 5 µM [1] | inhibition at 10 µM [1] | inhibition at 20 µM [1] | IC50 [1] | activity at 100 µM [2] | Antiproliferative effect on PSC, result in words [1]
1 | O=c1cc(-c2ccc(O)cc2)oc2cc(O)cc(O)c12 [Apigenin, 4′,5,7-trihydroxyflavone, reference compound] | 11% | 34% | 64% | 18.6 ± 1.6 µM | 80.8% | –
2 | COc1cc(OC)c2c(=O)cc(-c3ccc(OCC(O)CN4CCCCC4)cc3)oc2c1 (centres unmarked) [Compound 24, 2-(4-(2-Hydroxy-3-piperidin-1-yl-propoxy)phenyl)-5,7-dimethoxy-chromen-4-one] | 34% | 65% | 95% | 8 ± 1.8 µM | 79% | potent antiproliferative effects
3 | COc1cc(OC)c2c(=O)cc(-c3ccc(OCC4CO4)cc3)oc2c1 (centres unmarked) [Compound 23, 5,7-Dimethoxy-2-(4-oxiranylmethoxyphenyl)-chromen-4-one] | 69% | 89% | 93% | 2.5 ± 0.6 µM | 119% | highly potent inhibitor suppressing PSC proliferation
